Numbered stars: 1 amine (or outer) side, 2 acyl side, 3 side chain; on linkers, the order of the positions; unused ones are H or OH. Bridge positions count the residues as written; N and C are the ends. Square brackets hold non-standard residues; d marks the D form. Peptide text beside a SMILES is read from it. I, II: the chains in the order shown. Actinocin(9to1) = Cc1c2oc3c(C)ccc(C(=O)[*:1])c3nc-2c(C(=O)[*:2])c(N)c1=O; NMeV = CN[C@H](C(=O)O)C(C)C; Sar = CNCC(=O)O
The compounds below were run on 13 liposarcoma cell lines (assay: High-throughput drug screen, ATP viability 72h). Conditions: five concentrations 1 nM to 10 μM, combined viability (AUC).
Assay type: cell-based, human
Description: 349 compounds from anti-cancer Selleck Chemical library were pre-aliquoted at five concentrations, increasing in 10-fold steps from 1 nM to 10 μM, in 384-well plates using an Echo Liquid Handler. Each plate also contained positive (benzethonium chloride, BzCl) and negative (DMSO only) controls. Additional drugs were added manually to the same plates at the same concentration range. Cells were seeded directly into the plates containing the drugs. After 72h viability was assessed through levels of ATP, with Cell Titer Glow assay (Promega, Wisconsin, United States) and luminescence quantified using a […]. Data from drug screens were analyzed with R version 3.4.0 (R_Core_Team, 2017) normalized to median positive (BzCl) and median negative (DMSO) controls using formula: (drug-BzCl)/(DMSO–BzCl), with total viability calculated as the area under the curve over all five drug concentrations, adjusted using qualitatively constrained quantile smoothing splines, R package ‘cobs’ version 1.3–3 [22]. The raw values of positive (BzCl) and median negative (DMSO) controls on each assay plate were aggregated and used to calculate z’-factors, as a measure of assay performance and data quality, with a z’-factor > 0.5 representing acceptable data. For two cases where the z’-factor was below 0.5, strictly standardized mean difference (SSMD) was additionally calculated, giving the population value (β) of SSMD -4 and -5, respectively, indicating good quality. Data visualization was done in R using ‘ComplexHeatmaps’ package version 1.20.0 [24]. The same assay was also used when assessing viability of non-tumor cells and tumor explants.
Thirteen liposarcoma cell lines representing dedifferentiated, well-differentiated, pleomorphic and unspecified subtype liposarcomas were grown in 384-well format in the presence one of the 353 compounds, each at five 10-fold increasing concentrations (from 1 nM to 10 μM) for 72h, after which their viability was scored by measuring ATP levels. The viability was normalized to positive and negative controls and was calculated as sum of viabilities obtained with all the five used concentrations. That means if, e.g., the compound was killing cells at all the tested concentrations, the viability value would be 0, and if the compound was not killing cells at any tested concentrations, the value would be […]. If the compound was reducing the viability to 50% at 100 nM, and to 0% at 1 and 10 μM, the total viability would be calculated as 2 (see scheme on the top of Fig 1A). Within the tested concentration range, the majority of the drugs had very little effect on viability regardless of the target or pathway (Figs 1A and S1). The drug screen included 28 chemotherapeutic drugs currently in clinical use in Norway for the treatment of sarcoma.
With `CC(C)C[C@H](NC(=O)[C@H](Cc1ccccc1)NC(=O)c1cnccn1)B(O)O` [Bortezomib] the “effect on viability in the drug screen” value was “top candidates from the screen”.
With `Cc1c2oc3c(C)ccc(C(=O)N[C@@H]4C(=O)N[C@H](C(C)C)C(=O)N5CCC[C@H]5C(=O)N(C)CC(=O)N(C)[C@@H](C(C)C)C(=O)O[C@@H]4C)c3nc-2c(C(=O)N[C@@H]2C(=O)N[C@H](C(C)C)C(=O)N3CCC[C@H]3C(=O)N(C)CC(=O)N(C)[C@@H](C(C)C)C(=O)O[C@@H]2C)c(N)c1=O` [actinomycin D] (I: T[dV]P[Sar][NMeV] / II: T[dV]P[Sar][NMeV]; ester I:1-I:C, II:1-II:C; linker I:N-II:N via Actinocin(9to1)) the “effect on viability in the drug screen” value was “significant impact on viability”.
In the case of `CC(=O)O[C@@]12CO[C@@H]1C[C@H](O)[C@@]1(C)C(=O)[C@H](O)C3=C(C)[C@@H](OC(=O)[C@H](O)[C@@H](NC(=O)OC(C)(C)C)c4ccccc4)C[C@@](O)([C@@H](OC(=O)c4ccccc4)[C@H]21)C3(C)C` [docetaxel], the “effect on viability in the drug screen” value is reported as “significant impact on viability”.
In the case of `Nc1ccn([C@@H]2O[C@H](CO)[C@@H](O)C2(F)F)c(=O)n1` [gemcitabine], the “effect on viability in the drug screen” value is reported as “significant impact on viability”.
`Cc1ccc(C(=O)N(CCCN)[C@@H](c2nc3cc(Cl)ccc3c(=O)n2Cc2ccccc2)C(C)C)cc1` [ispinesib] was tested, and the “effect on viability in the drug screen” value was “top candidates from the screen”.
With `CC(=O)O[C@H]1C(=O)[C@@]2(C)[C@H]([C@H](OC(=O)c3ccccc3)[C@]3(O)C[C@H](OC(=O)[C@H](O)[C@@H](NC(=O)c4ccccc4)c4ccccc4)C(C)=C1C3(C)C)[C@]1(OC(C)=O)CO[C@@H]1C[C@@H]2O` [paclitaxel] the “effect on viability in the drug screen” value was “significant impact on viability”.
In the case of `CC[C@]1(O)C[C@H]2CN(CCc3c([nH]c4ccccc34)[C@@](C(=O)OC)(c3cc4c(cc3OC)N(C=O)[C@H]3[C@@](O)(C(=O)OC)[C@H](OC(C)=O)[C@]5(CC)C=CCN6CC[C@]43[C@@H]65)C2)C1` [vincristine], the “effect on viability in the drug screen” value is reported as “significant impact on viability”.

Source: PMC7946228, “Discovery of novel candidates for anti-liposarcoma therapies by medium-scale high-throughput drug screening” (PLoS ONE, 2021)
